pIC50: −log10 of the molar value.
Target: T1, human LPA1 (Homo sapiens, UniProt Q92633)
T1 construct: expressed in transfected cells; host or cells: Chinese hamster ovary (CHO) cells
Assay: LPA1 functional antagonist assay (calcium flux)
Format: cell-based
Conditions: CHO cells overexpressing human LPA1; inhibition of calcium flux induced by 10 nM LPA; read-out: hLPA1 IC50
Description: The effectiveness of compounds of the present invention as LPA1 inhibitors can be determined in an LPA1 functional antagonist assay as follows:
Chinese hamster ovary cells overexpressing human LPA1 were plated overnight (15,000 cells/well) in poly-D-lysine coated 384-well microplates (Greiner bio-one, Cat #781946) in DMEM/F12 medium (Gibco, Cat #11039). Following overnight culture, cells were loaded with calcium indicator dye (AAT Bioquest Inc, Cat #34601) for 30 minutes at 37° C. The cells were then equilibrated to room temperature for 30 minutes before the assay. Test compounds solubilized in DMSO were transferred to 384 well non-binding surface plates (Corning, Cat #3575) using the Labcyte Echo acoustic dispense and diluted with assay buffer [1×HBSS with calcium/magnesium (Gibco Cat #14025-092), 20 mM HEPES (Gibco Cat #15630-080) and 0.1% fatty acid free BSA (Sigma Cat #A9205)] to a final concentration of 0.5% DMSO. Diluted compounds were added to the cells by FDSS6000 (Hamamatsu) at final concentrations ranging from 0.08 nM to 5 μM. and were then incubated for 20 min at room temperature at which time LPA (Avanti Polar Lipids Cat #857130C) was added at final concentrations of 10 nM to stimulate the cells. […] IC50 values were determined by fitting data to a 4-parameter logistic equation (GraphPad Prism, San Diego Calif.).

T1 sequence (Q92633 whole entry): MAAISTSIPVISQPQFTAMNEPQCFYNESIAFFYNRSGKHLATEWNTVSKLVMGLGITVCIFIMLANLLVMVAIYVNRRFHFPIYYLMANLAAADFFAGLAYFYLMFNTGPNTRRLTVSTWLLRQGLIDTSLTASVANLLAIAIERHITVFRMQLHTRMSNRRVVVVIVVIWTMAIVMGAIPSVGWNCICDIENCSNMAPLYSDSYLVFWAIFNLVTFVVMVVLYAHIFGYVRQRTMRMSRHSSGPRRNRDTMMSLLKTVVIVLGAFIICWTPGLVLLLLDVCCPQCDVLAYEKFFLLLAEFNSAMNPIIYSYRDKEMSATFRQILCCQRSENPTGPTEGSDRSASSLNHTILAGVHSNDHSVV

SMILES	pIC50
Cc1noc(-c2ccc(O[C@H]3CCC[C@H](C(=O)O)C3)cn2)c1CNC(=O)OCc1ccc(F)cc1 [Example 1, (1S,3S)-3-((6-(4-(((((4-Fluorobenzyl)oxy)carbonyl)amino)methyl)-3-methylisoxazol-5-yl) Pyridin-3-yl)oxy)cyclohexanecarboxylic Acid]	8.05
Cc1nc(-c2onc(C)c2CNS(=O)(=O)Cc2ccccc2)ccc1O[C@H]1CCC[C@H](C(=O)O)C1 [Example 51, (1S,3S)-3-((2-methyl-6-(3-methyl-4-(((phenylmethyl)sulfonamido)methyl) Isoxazol-5-yl)pyridin-3-yl)oxy)cyclohexane-1-carboxylic Acid]	6.21

Same assay, conditions: read-out: hLPA1 IC50

SMILES	pIC50
Cc1noc(-c2ccc(O[C@H]3CCC[C@@H](C(=O)O)C3)cc2)c1NC(=O)O[C@H](C)C1CC1 (racemic) [Example 33]	7.08
Cc1noc(-c2ccc(O[C@H]3CCC[C@H](C(=O)O)C3)cn2)c1CNC(=O)OCC1CCC1 [Example 7]	7.80
CCC(C)COC(=O)NCc1c(C)noc1-c1ccc(O[C@@H]2CCC[C@@H](C(=O)O)C2)cc1 (mixture of isomers) [Example 25]	7.02
Cc1noc(-c2ccc(O[C@H]3CCC[C@H](C(=O)O)C3)cn2)c1CNC(=O)OCC1CC1(C)C (stereo partly shown) [Example 63]	7.80
Cc1noc(-c2ccc(O[C@H]3CCC[C@H](C(=O)O)C3)cc2)c1CNC(=O)OCc1ccc(Cl)cc1 [Example 12]	8.56
Cc1noc(-c2ccc(O[C@H]3CCC[C@H](C(=O)O)C3)cc2)c1NC(=O)O[C@H](C)C1CC1 (single isomer, unassigned) [Example 32]	7.08
Cc1noc(-c2ccc(O[C@H]3CCC[C@H](C(=O)O)C3)cn2)c1CNC(=O)OCc1cccc(Cl)c1 [Example 4]	7.52
Cc1noc(-c2ccc(O[C@H]3CCC[C@H](C(=O)O)C3)cc2)c1CNC(=O)OCc1cccc(Cl)c1 [Example 11]	6.71
Cc1nc(-c2onc(C)c2CN(C)C(=O)OCc2ccccc2)ccc1O[C@H]1CCC[C@H](C(=O)O)C1 [Example 49, (1S,3S)-3-((6-(4-((((Benzyloxy)carbonyl)(methyl)amino)methyl)-3-methyl-isoxazol-5-yl)-2-methylpyridin-3-yl)oxy)cyclohexanecarboxylic Acid]	8.22
Cc1noc(-c2ccc(O[C@H]3CCC[C@H](C(=O)O)C3)cn2)c1CNC(=O)CCc1ccccc1 [Example 54, (1S,3S)-3-((6-(3-methyl-4-((3-phenylpropanamido)methyl)isoxazol-5-yl)pyridin-3-yl)oxy)cyclohexane-1-carboxylic Acid]	6.59
CCCCOC(=O)NCc1c(C)noc1-c1ccc(O[C@H]2CCC[C@H](C(=O)O)C2)c(C)n1 [Example 42]	8.10
Cc1nc(-c2onc(C)c2CN(C)C(=O)OCC(C)C)ccc1O[C@H]1CCC[C@H](C(=O)O)C1 [Example 40]	7.47
Cc1noc(-c2ccc(O[C@H]3CCC[C@H](C(=O)O)C3)cn2)c1CNC(=O)OCc1ccccc1 (single isomer, unassigned) [Example 56]	8.40
CCCCCOC(=O)NCc1c(C)noc1-c1ccc(O[C@H]2CCC[C@H](C(=O)O)C2)c(C)n1 [Example 43]	8.10
Cc1cccc(COC(=O)NCc2c(C)noc2-c2ccc(O[C@H]3CCC[C@H](C(=O)O)C3)cn2)c1 [Example 5]	7.60
Cc1nc(-c2onc(C)c2CNC(=O)OCC(C)C)ccc1O[C@H]1CCC[C@H](C(=O)O)C1 [Example 39]	7.43
Cc1nc(-c2onc(C)c2CNC(=O)OC(C)(C)C)ccc1O[C@H]1CCC[C@H](C(=O)O)C1 [Example 50, (1S,3S)-3-((6-(4-(((tert-butoxycarbonyl)amino)methyl)-3-methylisoxazol-5-yl)-2-methylpyridin-3-yl)oxy)cyclohexane-1-carboxylic Acid]	7.36
Cc1noc(-c2ccc(O[C@H]3CCC[C@H](C(=O)O)C3)cn2)c1CNC(=O)OCCC(C)(C)C [Example 6]	8.15
Cc1noc(-c2ccc(O[C@H]3CCC[C@H](C(=O)O)C3)cc2)c1CN(C)C(=O)OCc1ccccc1 [Example 13]	7.20
Cc1noc(-c2ccc(O[C@@H]3CCC[C@@H](C(=O)O)C3)cn2)c1CNC(=O)OCc1ccccc1 (single isomer, unassigned) [Example 57]	7.31
Cc1noc(-c2cnc(O[C@H]3CCC[C@H](C(=O)O)C3)cn2)c1CNC(=O)OCc1ccccc1 (racemic) [Example 52, (±)-Trans-3-((5-(4-((((benzyloxy)carbonyl)amino)methyl)-3-methyl-isoxazol-5-yl)pyrazin-2-yl)oxy)cyclohexane-1-carboxylic Acid]	6.95
Cc1noc(-c2ccc(O[C@@H]3CCC[C@@H](C(=O)O)C3)cc2)c1CNC(=O)OCc1ccccc1Cl [Example 20]	6.61
COCCOC(=O)NCc1c(C)noc1-c1ccc(O[C@H]2CCC[C@H](C(=O)O)C2)c(C)n1 [Example 46]	6.56
Cc1noc(-c2ccc(O[C@@H]3CCC[C@@H](C(=O)O)C3)cc2)c1CNC(=O)O[C@@H](C)c1ccccc1 (mixture of isomers) [Example 16]	5.79

SMILES	pIC50
CCCCCCOC(=O)NCc1c(C)noc1-c1ccc(O[C@H]2CCC[C@H](C(=O)O)C2)cn1 [Example 36, (1S,3S)-3-((6-(4-((((hexyloxy)carbonyl)amino)methyl)-3-methylisoxazol-5-yl)pyridin-3-yl)oxy)cyclohexane-1-carboxylic Acid]	7.34
Cc1noc(-c2ccc(O[C@@H]3CCC[C@@H](C(=O)O)C3)cc2)c1CNC(=O)OCC(C)(C)C (racemic) [Example 26]	6.48
Cc1noc(-c2ccc(O[C@@H]3CCC[C@@H](C(=O)O)C3)cc2)c1CNC(=O)O[C@H](C)c1ccccc1 (mixture of isomers) [Example 17]	6.53
CCCCOC(=O)N(C)Cc1c(C)noc1-c1ccc(O[C@H]2CCC[C@H](C(=O)O)C2)cn1 [Example 60]	7.48
CCCCOC(=O)NCc1c(C)noc1-c1ccc(O[C@@H]2CCC[C@@H](C(=O)O)C2)cc1 (racemic) [Example 23]	6.50
Cc1noc(-c2ccc(O[C@@H]3CCC[C@@H](C(=O)O)C3)cc2)c1CNC(=O)OCc1ccccc1F [Example 19]	6.82
CCC[C@@H](C)OC(=O)NCc1c(C)noc1-c1ccc(O[C@H]2CCC[C@H](C(=O)O)C2)cn1 [Example 58]	7.43
CC[C@H](C)COC(=O)NCc1c(C)noc1-c1ccc(O[C@H]2CCC[C@H](C(=O)O)C2)cn1 [Example 61]	8.10
CCCOC(=O)NCc1c(C)noc1-c1ccc(O[C@H]2CCC[C@H](C(=O)O)C2)c(C)n1 [Example 41]	7.70
Cc1noc(-c2ccc(O[C@H]3CCC[C@H](C(=O)O)C3)cn2)c1NC(=O)O[C@H](C)C1CC1 [Example 34, (1S,3S)-3-((6-(4-((((R)-1-cyclopropylethoxy)carbonyl)amino)-3-methylisoxazol-5-yl)pyridin-3-yl)oxy)cyclohexane-1-carboxylic Acid]	7.52
Cc1noc(-c2ccc(O[C@@H]3CCC[C@@H](C(=O)O)C3)cc2)c1CNC(=O)OC(C)C1CC1 (mixture of isomers) [Example 27]	5.94
Cc1nc(-c2onc(C)c2CNC(=O)OCc2ccccc2)ccc1O[C@H]1CCC[C@H](C(=O)O)C1 [Example 48]	8.30
Cc1noc(-c2ccc(O[C@H]3CCC[C@H](C(=O)O)C3)cn2)c1CNC(=O)OC1CC(C)(C)C1 [Example 59]	7.96
Cc1noc(-c2ccc(O[C@H]3CCC[C@H](C(=O)O)C3)cn2)c1CN(C)C(=O)OCc1ccccc1 [Example 64]	7.85
CCC[C@H](C)OC(=O)NCc1c(C)noc1-c1ccc(O[C@H]2CCC[C@H](C(=O)O)C2)cn1 [Example 55, (1S,3S)-3-((6-(3-methyl-4-((((((S)-pentan-2-yl)oxy)carbonyl)amino) Methyl) Isoxazol-5-yl)pyridin-3-yl)oxy)cyclohexane-1-carboxylic Acid]	7.64
Cc1nc(-c2onc(C)c2CNC(=O)OC(C)C)ccc1O[C@H]1CCC[C@H](C(=O)O)C1 [Example 47]	7.52
Cc1noc(-c2ccc(O[C@H]3CCC[C@H](C(=O)O)C3)cn2)c1CNC(=O)OCCC1CC1 [Example 62]	7.11
Cc1noc(-c2ccc(O[C@@H]3CCC[C@@H](C(=O)O)C3)cc2)c1CNC(=O)OCC1CCC1 (racemic) [Example 29]	6.39
Cc1noc(-c2ccc(O[C@H]3CCC[C@H](C(=O)O)C3)cn2)c1CNC(=O)OC1CCCC1 [Example 38]	7.20
Cc1noc(-c2ccc(O[C@@H]3CCC[C@@H](C(=O)O)C3)cc2)c1CNC(=O)OCc1cccc(F)c1 (racemic) [Example 21]	6.59
Cc1noc(-c2ccc(O[C@@H]3CCC[C@@H](C(=O)O)C3)cc2)c1CNC(=O)OCC(C)C (racemic) [Example 22]	5.67
Cc1noc(-c2ccc(O[C@@H]3CCC[C@@H](C(=O)O)C3)cc2)c1CNC(=O)OCCC1CC1 [Example 28]	6.58
Cc1noc(-c2ccc(O[C@H]3CCC[C@H](C(=O)O)C3)cn2)c1CNC(=O)NCc1ccccc1 [Example 35, (1S,3S)-3-((6-(4-((3-benzylureido)methyl)-3-methylisoxazol-5-yl)pyridin-3-yl)oxy)cyclohexane-1-carboxylic Acid]	6.64

Reference: patent US11447475B2, “Isoxazole N-linked carbamoyl cyclohexyl acids as LPA antagonists” (BRISTOL-MYERS SQUIBB COMPANY, priority 2017, dated 2022)
